Data from patent US20250092022A1, “MUSCARINIC RECEPTOR 4 ANTAGONISTS AND METHODS OF USE” (Neurocrine Biosciences, Inc., priority 2021, published 2025).

Target: human M4 receptor (Homo sapiens (Human), UniProt P08173)
Test: Binding assay: inhibition of radioligand (tritiated N-methylscopolamine) binding to membranes from CHO cells expressing human M4 receptor
Conditions: CHO cell membranes, 1.5 nM tritiated N-methylscopolamine
Method: Binding affinity (Ki) for the compounds was measured by inhibition of radioligand binding to membranes from CHO cells expressing human M4 receptor. Membranes were prepared by nitrogen cavitation and differential centrifugation as previously described (Hoare et al., Mol. Pharmacol. 2003 March; 63(3): 751-65). The radioligand employed was tritiated N-methylscopolamine, used at a concentration of 1.5 nM. A dose-response of twelve concentrations of compound was used, ranging from […]. The assay buffer was 50 mM HEPES, 100 mM NaCl, 5 mM MgCl2, 1 mM ethylenediaminetetraacetic acid, pH-adjusted to pH 7.4. Membranes, radioligand and compound were incubated together for 90 minutes at 37° C., in a total volume of 150 μL in a 96-well plate. Receptor-bound radioligand was then collected by harvesting the assay over glass fiber filters pretreated with polyethylenimine to trap the cell membranes, using rapid vacuum filtration. Harvesting and radioactivity counting was conducted as previously described (see, e.g., Hoare et al., Mol. Pharmacol. 2003 63(3):751-65); Erratum at Mol. Pharmacol. 2005 July; 68(1): 260).

Sequence of human M4 receptor (P08173 whole entry): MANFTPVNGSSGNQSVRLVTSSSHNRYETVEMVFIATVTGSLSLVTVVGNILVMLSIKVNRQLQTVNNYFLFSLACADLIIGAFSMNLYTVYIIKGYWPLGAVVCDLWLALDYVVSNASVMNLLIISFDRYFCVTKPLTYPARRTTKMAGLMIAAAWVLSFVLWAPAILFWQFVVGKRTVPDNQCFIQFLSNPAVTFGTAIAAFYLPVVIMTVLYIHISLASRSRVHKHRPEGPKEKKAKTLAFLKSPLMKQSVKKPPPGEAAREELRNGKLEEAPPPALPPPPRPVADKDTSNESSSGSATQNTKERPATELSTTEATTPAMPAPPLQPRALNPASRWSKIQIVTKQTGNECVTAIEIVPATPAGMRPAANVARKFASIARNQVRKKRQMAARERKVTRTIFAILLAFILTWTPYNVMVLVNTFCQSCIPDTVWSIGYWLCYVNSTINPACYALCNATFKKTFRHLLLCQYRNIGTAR

Ki | SMILES
< 0.1 µM | C[C@@H]1CN(c2ncc(S(C)(=O)=O)cn2)[C@@H](C)CN1C(=O)OC1CC2(C1)CN(Cc1ccccc1)C2 [Compound 12, 2-benzyl-2-azaspiro [3.3]heptan-6-yl (2R,5S)-4-(5-methane-sulfonylpyrimidin-2-yl)-2,5-dimethylpiperazine-1-carboxylate]
0.1 to 0.5 µM | C[C@@H]1CN(c2ncc([S+](C)[O-])cn2)C[C@H](C)N1C(=O)OC1CC2(C1)CN(Cc1ccccc1)C2 (stereo partly drawn) [Compound 23, 2-benzyl-2-azaspiro [3.3]heptan-6-yl (2R,6S)-4-(5-methane-sulfinylpyrimidin-2-yl)-2,6-dimethylpiperazine-1-carboxylate]
≥ 0.5 µM | Cc1ccc(CN2CC3(CC(OC(=O)N4[C@H](C)CN(c5ncc(S(C)(=O)=O)cn5)C[C@@H]4C)C3)C2)cc1 [Compound 61, 2-[(4-methylphenyl)methyl]-2-azaspiro[3.3] heptan-6-yl (2R,6S)-4-(5-methanesulfonylpyrimidin-2-yl)-2,6-dimethyl-piperazine-1-carboxylate]
≥ 0.5 µM | C[C@@H]1CN(c2ncc(O)cn2)C[C@H](C)N1C(=O)OC1CC2(C1)CN(Cc1ccccc1)C2 [Compound 51, 2-benzyl-2-azaspiro [3.3]heptan-6-yl (2R,6S)-4-(5-hydroxypyrimidin-2-yl)-2,6-dimethyl-piperazine-1-carboxylate]
< 0.1 µM | C[C@@H]1CN(c2ncc(S(=O)(=O)C3CC3)cn2)[C@@H](C)CN1C(=O)OC1CC2(C1)CN(Cc1ccccc1)C2 [Compound 20, 2-benzyl-2-azaspiro [3.3]heptan-6-yl (2R,5S)-4-[5-(cyclo-propanesulfonyl)pyrimidin-2-yl]-2,5-dimethyl-piperazine-1-carboxylate]
< 0.1 µM | C[C@@H]1CN(c2ncc(S(C)(=O)=O)cn2)C[C@H](C)N1C(=O)OC1CC2(C1)CN(Cc1ccc(F)cc1)C2 [Compound 38, 2-[(4-fluorophenyl)methyl]-2-azaspiro[3.3] heptan-6-yl (2R,6S)-4-(5-methanesulfonylpyrimidin-2-yl)-2,6-dimethyl-piperazine-1-carboxylate]
< 0.1 µM | C[C@@H]1CN(c2ncc(S(=O)(=O)C3CC3)cn2)[C@@H](C)CN1C(=O)NC1CC2(C1)CN(Cc1ccccc1)C2 [Compound 6, (2R,5S)-N-{2-benzyl-2-azaspiro[3.3]heptan-6-yl}-4-[5-(cyclopropane-sulfonyl)pyrimidin-2-yl]-2,5-dimethylpiperazine-1-carboxamide]
< 0.1 µM | C[C@@H]1CN(c2ncc(S(=O)(=O)C3CC3)cn2)C[C@H](C)N1C(=O)NC1CC2(C1)CN(Cc1ccccc1)C2 [Compound 3, (2R,6S)-N-{2-benzyl-2-azaspiro[3.3]heptan-6-yl}-4-[5-(cyclopropanesulfonyl)pyrimidin-2-yl]-2,6-dimethylpiperazine-1-carboxamide]
< 0.1 µM | C[C@@H]1CN(c2ncc3c(n2)CS(=O)(=O)C3)C[C@H](C)N1C(=O)OC1CC2(C1)CN(Cc1ccccc1)C2 [Compound 43, 2-benzyl-2-azaspiro [3.3]heptan-6-yl (2R,6S)-4-dioxo-5H,7H-6λ^6-thieno [3,4-d]pyrimidin-2-yl}-2,6-dimethylpiperazine-1-carboxylate]
≥ 0.5 µM | C[C@@H]1CN(c2ncc(N3CCCC3=O)cn2)C[C@H](C)N1C(=O)OC1CC2(C1)CN(Cc1ccccc1)C2 [Compound 30, 2-benzyl-2-azaspiro [3.3]heptan-6-yl (2R,6S)-2,6-dimethyl-4-[5-(2-oxopyrrolidin-1-yl)pyrimidin-2-yl]piperazine-1-carboxylate]
0.1 to 0.5 µM | C[C@@H]1CN(c2ncc(OCC(C)(C)O)cn2)C[C@H](C)N1C(=O)OC1CC2(C1)CN(Cc1ccccc1)C2 [Compound 59, 2-benzyl-2-azaspiro [3.3]heptan-6-yl (2R,6S)-4-[5-(2-hydroxy-2-methylpropoxy)pyrimidin-2-yl]-2,6-dimethyl-piperazine-1-carboxylate]
< 0.1 µM | C[C@@H]1CN(c2ncc(S(=O)(=O)C(F)F)cn2)[C@@H](C)CN1C(=O)OC1CC2(C1)CN(Cc1ccccc1)C2 [Compound 24, 2-benzyl-2-azaspiro [3.3]heptan-6-yl (2R,5S)-4-(5-difluoromethanesulfonyl-pyrimidin-2-yl)-2,5-dimethylpiperazine-1-carboxylate]
≥ 0.5 µM | C[C@@H]1CN(c2ncc(N3CCC3=O)cn2)C[C@H](C)N1C(=O)OC1CC2(C1)CN(Cc1ccccc1)C2 [Compound 29, 2-benzyl-2-azaspiro [3.3]heptan-6-yl (2R,6S)-2,6-dimethyl-4-[5-(2-oxoazetidin-1-yl)pyrimidin-2-yl] piperazine-1-carboxylate]
≥ 0.5 µM | C[C@H](O)COc1cnc(N2C[C@@H](C)N(C(=O)OC3CC4(C3)CN(Cc3ccccc3)C4)[C@@H](C)C2)nc1 [Compound 55, 2-benzyl-2-azaspiro [3.3]heptan-6-yl (2R,6S)-4-{5-[(2S)-2-hydroxypropoxy]pyrimidin-2-yl}-2,6-dimethylpiperazine-1-carboxylate]
< 0.1 µM | CCS(=O)(=O)c1cnc(N2C[C@@H](C)N(C(=O)NC3CC4(C3)CN(Cc3ccccc3)C4)C[C@@H]2C)nc1 [Compound 5, (2R,5S)-N-{2-benzyl-2-azaspiro[3.3]heptan-6-yl}-4-[5-(ethanesulfonyl)pyrimidin-2-yl]-2,5-dimethylpiperazine-1-carboxamide]
< 0.1 µM | COc1ccc(CN2CC3(CC(OC(=O)N4[C@H](C)CN(c5ncc(S(C)(=O)=O)cn5)C[C@@H]4C)C3)C2)cc1 [Compound 60, 2-[(4-methoxyphenyl)methyl]-2-azaspiro[3.3] heptan-6-yl (2R,6S)-4-(5-methanesulfonylpyrimidin-2-yl)-2,6-dimethyl-piperazine-1-carboxylate]
≥ 0.5 µM | C[C@@H]1CN(c2ccc(S(C)(=O)=O)cc2)C[C@H](C)N1C(=O)NC1CC2(C1)CN(Cc1ccccc1)C2 [Compound 9, (2R,6S)-N-{2-benzyl-2-azaspiro[3.3]heptan-6-yl}-4-(4-methanesulfonyl-phenyl)-2,6-dimethyl-piperazine-1-carboxamide]
< 0.1 µM | C[C@@H]1CN(c2ncc(S(C)(=O)=O)cn2)[C@@H](C)CN1C(=O)OC1CC2(C1)CN(Cc1ccc(Cl)cc1)C2 [Compound 37, 2-[(4-chlorophenyl)methyl]-2-azaspiro[3.3] heptan-6-yl (2R,5S)-4-(5-methanesulfonylpyrimidin-2-yl)-2,5-dimethyl-piperazine-1-carboxylate]
< 0.1 µM | Cc1nc(N2C[C@@H](C)N(C(=O)OC3CC4(C3)CN(Cc3ccccc3)C4)C[C@@H]2C)ncc1S(C)(=O)=O [Compound 25, 2-benzyl-2-azaspiro [3.3]heptan-6-yl (2R,5S)-4-(5-methane-sulfonyl-4-methyl-pyrimidin-2-yl)-2,5-dimethylpiperazine-1-carboxylate]
< 0.1 µM | CCS(=O)(=O)c1cnc(N2C[C@@H](C)N(C(=O)OC3CC4(C3)CN(Cc3ccccc3)C4)C[C@@H]2C)nc1 [Compound 11, 2-benzyl-2-azaspiro [3.3]heptan-6-yl (2R,5S)-4-[5-(ethane-sulfonyl)pyrimidin-2-yl]-2,5-dimethylpiperazine-1-carboxylate]
≥ 0.5 µM | C[C@@H]1CN(c2ncc(OCC(O)CF)cn2)C[C@H](C)N1C(=O)OC1CC2(C1)CN(Cc1ccccc1)C2 (stereo partly drawn) [Compound 53, 2-benzyl-2-azaspiro [3.3]heptan-6-yl (2R,6S)-4-[5-(3-fluoro-2-hydroxypropoxy)pyrimidin-2-yl]-2,6-dimethyl-piperazine-1-carboxylate]
0.1 to 0.5 µM | C[C@@H]1CN(c2ncc(OCC(O)C(F)F)cn2)C[C@H](C)N1C(=O)OC1CC2(C1)CN(Cc1ccccc1)C2 (stereo partly drawn) [Compound 54, 2-benzyl-2-azaspiro [3.3]heptan-6-yl (2R,6S)-4-[5-(3,3-difluoro-2-hydroxypropoxy)pyrimidin-2-yl]-2,6-dimethylpiperazine-1-carboxylate]
0.1 to 0.5 µM | C[C@@H]1CN(c2ncc(OC[C@@H](C)O)cn2)C[C@H](C)N1C(=O)OC1CC2(C1)CN(Cc1ccccc1)C2 [Compound 56, 2-benzyl-2-azaspiro [3.3]heptan-6-yl (2R,6S)-4-{5-[(2R)-2-hydroxypropoxy]pyrimidin-2-yl}-2,6-dimethyl-piperazine-1-carboxylate]
0.1 to 0.5 µM | C[C@@H]1CN(c2ncc3c(n2)CCS3(=O)=O)C[C@H](C)N1C(=O)OC1CC2(C1)CN(Cc1ccccc1)C2 [Compound 39, 2-benzyl-2-azaspiro [3.3]heptan-6-yl (2R,6S)-4-{5,5-dioxo-6H, 7H-5λ^6-thieno[3,2-d]pyrimidin-2-yl}-2,6-dimethylpiperazine-1-carboxylate]
≥ 0.5 µM | COc1cnc(N2C[C@@H](C)N(C(=O)OC3CC4(C3)CN(Cc3ccccc3)C4)[C@@H](C)C2)nc1 [Compound 45, 2-benzyl-2-azaspiro [3.3]heptan-2-yl (2R,6S)-4-(5-methoxypyrimidin-2-yl)-2,6-dimethyl-piperazine-1-carboxylate]
< 0.1 µM | CCS(=O)(=O)c1cnc(N2C[C@@H](C)N(C(=O)OC3CC4(C3)CN(Cc3ccccc3)C4)[C@@H](C)C2)nc1 [Compound 32, 2-benzyl-2-azaspiro [3.3]heptan-6-yl (2R,6S)-4-[5-(ethane-sulfonyl)pyrimidin-2-yl]-2,6-dimethylpiperazine-1-carboxylate]

SMILES | Ki
CC[C@@H](O)COc1cnc(N2C[C@@H](C)N(C(=O)OC3CC4(C3)CN(Cc3ccccc3)C4)[C@@H](C)C2)nc1 [Compound 58, 2-benzyl-2-azaspiro [3.3]heptan-6-yl (2R,6S)-4-{5-[(2R)-2-hydroxybutoxy]pyrimidin-2-yl}-2,6-dimethyl-piperazine-1-carboxylate] | 0.1 to 0.5 µM
